In patent US6540999B1, “Immunomodulatory methods using Lewisx oligosacchardies” (President and Fellows of Harvard College, priority 1996, dated 2003):

Key:
IgE response [1] = tested on: IgE response; design: species or system mice; conditions: mouse, in vivo
IgE response [2] = tested on: IgE response; design: species or system mice; conditions: mouse, in vivo; remark: listed apart in the source
IgE response [3] = assay: Serum IgE titers after intranasal administration, HSA as antigen; type: in vivo; conditions: coadministration with HSA, mice, FIG. 4A
Granuloma macrophages = type: cell-based, C57BL/6 mice
Human PBMCs [4] = assay: Proliferation of human PBMCs from allergic or cancer patients (3H-thymidine uptake); type: cell-based; conditions: 3H-thymidine uptake at 90 hours; LPS 20 μg/ml, HSA and conjugates 100 μg/ml
Excerpt: (§1) Human PBMCs were obtained from: 1) an individual who was allergic to pollen; 2) an individual suffering from lung carcinoma and 3) an individual suffering from colon carcinoma.

[5] = tested on: naive splenocytes, T cell, B cell and non-T, non-B spleen cell populations; assay: IL-10 production in vitro by spleen cell subpopulations; type: cell-based, CBA mice; design: unit not given here
Excerpt: (§2) In this example, the types of cells responsive to the multimeric sugar conjugates, and the types of cytokines produced, either in vitro or in vivo, were investigated further. For the in vitro studies, naive splenocytes were isolated from CBA mice and fractionated into T cell, B cell and non-T, non-B spleen cell populations. B cell populations were defined by expression of the B220 surface marker (i.e., B220^+ cells). T cell populations were defined by expression of CD5 or Thy surface markers (i.e., CD5^+ or Thy+).

[6] = tested on: naive splenocytes, T cell, B cell and non-T, non-B spleen cell populations; assay: IFN-γ production in vitro by spleen cell subpopulations; type: cell-based, CBA mice; design: unit not given here
Excerpt: as §2

Human PBMCs [7] = assay: IL-10 production by human PBMCs from allergic or cancer patients (ELISA); type: cell-based; design: unit not given here; conditions: 24 hours; LPS 20 μg/ml, HSA and conjugates 100 μg/ml
Excerpt: as §1

[8] = naive CBA splenocytes, unfractionated

Compound: phospholipase A2 [PLA2]
- PLA2-specific IgE response elicited (in words) (IgE response [1]): elicits a strong PLA2-specific IgE response
- total IgE response elicited (in words) (IgE response [1]): elicits a strong total IgE response

Compound: lacto-N-fucopentaose III [free LNFPIII]
- inhibition of the SEA-specific IgE response (in words) (IgE response [2]): marked decrease in the antigen-specific IgE response
- inhibition of the total IgE response to SEA (in words) (IgE response [2]): only marginally inhibited
- lowering of the total IgE response compared to administration of PLA2 alone (IgE response [1]): approximately 70%
- reduction of the PLA2-specific IgE response (IgE response [1]): approximately 40%
- reduction in the levels of total IgE as compared to administration of HSA alone (IgE response [3]): approximately 60%

Compound: lipopolysaccharide [LPS]
- IL-10 LEVEL 24 HR (Granuloma macrophages): 7864 pg/mL
- IL-10 LEVEL 48 HR (Granuloma macrophages): 6559 pg/mL
- IL-10 LEVEL 72 HR (Granuloma macrophages): 4555 pg/mL
- CPM, COLON CARCINOMA (Human PBMCs [4]): 222 CPM
- CPM, LUNG CARCINOMA (Human PBMCs [4]): 232 CPM
- CPM, POLLEN ALLERGIC (Human PBMCs [4]): 1946 CPM
- IL-10, B cells (B220+) ([5]; B220+ cells): 552
- IL-10, Non-B (B220−) ([5]; B220− cells): 320
- IL-10, T cells (CD5+) ([5]; CD5+ cells): 264
- IL-10, Non-T (CD5−) ([5]; CD5− cells): 430
- IL-10, T cells (Thy+) ([5]; Thy+ cells): 72
- IL-10, Non-T (Thy−) ([5]; Thy− cells): 430
- IL-10, Total Spleen [5, 8]: 535
- IFN-γ, B cells (B220+) ([6]; B220+ cells): 0
- IFN-γ, Non-B (B220−) ([6]; B220− cells): 321
- IFN-γ, T cells (CD5+) ([6]; CD5+ cells): 403
- IFN-γ, Non-T (CD5−) ([6]; CD5− cells): 0
- IFN-γ, T cells (Thy+) ([6]; Thy+ cells): 617
- IFN-γ, Non-T (Thy−) ([6]; Thy− cells): 0
- IFN-γ, Total Spleen [6, 8]: 47
- IL-10, COLON CARCINOMA (Human PBMCs [7]): 8221
- IL-10, LUNG CARCINOMA (Human PBMCs [7]): 1400
- IL-10, POLLEN ALLERGIC (Human PBMCs [7]): 906

Compound: CC(=O)N[C@H]1[C@H](O[C@H]2[C@@H](O)[C@@H](CO)O[C@@H](O[C@H]3[C@H](O)[C@@H](O)C(O)O[C@@H]3CO)[C@@H]2O)O[C@H](CO)[C@@H](O[C@@H]2O[C@H](CO)[C@H](O)[C@H](O)[C@H]2O)[C@@H]1O (mixture of isomers) [free LNT, lacto-N-neotetraose]
- inhibition of the SEA-specific IgE response (in words) (IgE response [2]): significantly less effective than free LNFPIII
- inhibition of the total IgE response to SEA (in words) (IgE response [2]): had a greater inhibitory effect
- lowering of the total IgE response compared to administration of PLA2 alone (IgE response [1]): not
